The results in this text go back to ChEMBL document CHEMBL4321825, “Discovery of a Series of 5-Azaquinazolines as Orally Efficacious IRAK4 Inhibitors Targeting MyD88L265P Mutant Diffuse Large B Cell Lymphoma” (J Med Chem, 2019).

A word on the inhibition: it is the change of the read-out against control, counted positive when it falls. Higher therefore signals strong suppression. What is called IC50 is the concentration at which inhibition is half-maximal. A word on the fraction unbound: it is free concentration divided by total concentration. A lower fraction unbound goes with little free substance. Broadly, the bioavailability is the share of a dose that reaches the circulation, judged against a reference dose that is usually intravenous. Lower therefore signals poor availability. For orientation: solubility means the concentration that dissolves in the medium under given conditions. As a reminder, the logD is lipophilicity at a set pH, counting ionised and neutral species. A lower logD goes with a more hydrophilic compound. The term AUC denotes concentration integrated over time. Broadly, the Papp is a coefficient for how fast a substance crosses the barrier. One may read the clearance as a measure of how efficiently the substance is removed, as volume per time. A lower clearance goes with a low capacity for elimination.

Converted amounts (≈) assume the structure as drawn. The source made the active and inactive calls. The calls are words filed in the database; no cut-off is given here.

In series [1] the test system is OCI-LY19. Kind of series: Growth inhibition of human OCI-LY19 cells at 10 nM incubated for 3 days by Alamar blue dye based fluorescence assay (reference value: 3%). The class given is functional. The note with it: OCI-LY19, 72 h, read-out: GI. (In general: Alamar Blue is a resazurin reagent that responds to reducing activity.)
For series [2], the system named is OCI-Ly10. Kind of series: Antitumor activity against human OCI-LY10 cells xenografted in CB.17 SCID mouse assessed as induction of tumor stasis at 12 mg/kg, po QD dosed 34 days after tumor cell inoculation. The series is classed as functional, organism-based.
Series [3] deals with OCI-Ly10. Kind of series: Growth inhibition of human OCI-LY10 cells at 42 nM incubated for 3 days by Alamar blue dye based fluorescence assay (reference value: 3%). The series is classed as functional. The note with it: OCI-Ly10, 72 h, read-out: GI.
Series [4] has as its system OCI-Ly10. Kind of series: Growth inhibition of human OCI-LY10 cells at 0.3 nM incubated for 3 days by Alamar blue dye based fluorescence assay (reference value: 3%). The class given is functional. Particulars: OCI-Ly10, 72 h, read-out: GI.
Series [5] relates to OCI-Ly10. Kind of series: Growth inhibition of human OCI-LY10 cells at 4.2 nM incubated for 3 days by Alamar blue dye based fluorescence assay (reference value: 3%). The class given is functional. Particulars: OCI-Ly10, 72 h, read-out: GI.
In series [6] the test system is OCI-LY19. Description: Growth inhibition of human OCI-LY19 cells at 4.2 nM incubated for 3 days by Alamar blue dye based fluorescence assay (reference value: 3%). The note with it: OCI-LY19, 72 h, read-out: GI. The series is classed as functional.
Series [7] deals with OCI-LY19. Kind of series: Growth inhibition of human OCI-LY19 cells at 42 nM incubated for 3 days by Alamar blue dye based fluorescence assay (reference value: 3%). The class given is functional. Particulars: OCI-LY19, 72 h, read-out: GI.
Series [8] deals with OCI-Ly10. Description: Growth inhibition of human OCI-LY10 cells at 2.1 nM incubated for 3 days by Alamar blue dye based fluorescence assay (reference value: 3%). The series is classed as functional. Particulars: OCI-Ly10, 72 h, read-out: GI.
For series [9], the system named is OCI-Ly10. Kind of series: Growth inhibition of human OCI-LY10 cells at 10 nM incubated for 3 days by Alamar blue dye based fluorescence assay (reference value: 3%). The class given is functional. The note with it: OCI-Ly10, 72 h, read-out: GI.
For series [10], the system named is OCI-LY19. Kind of series: Growth inhibition of human OCI-LY19 cells at 2.1 nM incubated for 3 days by Alamar blue dye based fluorescence assay (reference value: 3%). The series is classed as functional. Particulars: OCI-LY19, 72 h, read-out: GI.
For series [11], the system named is OCI-LY19. Kind of series: Growth inhibition of human OCI-LY19 cells at 0.3 nM incubated for 3 days by Alamar blue dye based fluorescence assay (reference value: 3%). The class given is functional. The note with it: OCI-LY19, 72 h, read-out: GI.
The target of series [12] is Mitogen-activated protein kinase kinase kinase 9 (Homo sapiens) (UniProt P80192). Description: Inhibition of MLK1 (unknown origin) at 1 uM relative to control.
Chain of Mitogen-activated protein kinase kinase kinase 9 (Homo sapiens) (P80192 whole entry, looked up): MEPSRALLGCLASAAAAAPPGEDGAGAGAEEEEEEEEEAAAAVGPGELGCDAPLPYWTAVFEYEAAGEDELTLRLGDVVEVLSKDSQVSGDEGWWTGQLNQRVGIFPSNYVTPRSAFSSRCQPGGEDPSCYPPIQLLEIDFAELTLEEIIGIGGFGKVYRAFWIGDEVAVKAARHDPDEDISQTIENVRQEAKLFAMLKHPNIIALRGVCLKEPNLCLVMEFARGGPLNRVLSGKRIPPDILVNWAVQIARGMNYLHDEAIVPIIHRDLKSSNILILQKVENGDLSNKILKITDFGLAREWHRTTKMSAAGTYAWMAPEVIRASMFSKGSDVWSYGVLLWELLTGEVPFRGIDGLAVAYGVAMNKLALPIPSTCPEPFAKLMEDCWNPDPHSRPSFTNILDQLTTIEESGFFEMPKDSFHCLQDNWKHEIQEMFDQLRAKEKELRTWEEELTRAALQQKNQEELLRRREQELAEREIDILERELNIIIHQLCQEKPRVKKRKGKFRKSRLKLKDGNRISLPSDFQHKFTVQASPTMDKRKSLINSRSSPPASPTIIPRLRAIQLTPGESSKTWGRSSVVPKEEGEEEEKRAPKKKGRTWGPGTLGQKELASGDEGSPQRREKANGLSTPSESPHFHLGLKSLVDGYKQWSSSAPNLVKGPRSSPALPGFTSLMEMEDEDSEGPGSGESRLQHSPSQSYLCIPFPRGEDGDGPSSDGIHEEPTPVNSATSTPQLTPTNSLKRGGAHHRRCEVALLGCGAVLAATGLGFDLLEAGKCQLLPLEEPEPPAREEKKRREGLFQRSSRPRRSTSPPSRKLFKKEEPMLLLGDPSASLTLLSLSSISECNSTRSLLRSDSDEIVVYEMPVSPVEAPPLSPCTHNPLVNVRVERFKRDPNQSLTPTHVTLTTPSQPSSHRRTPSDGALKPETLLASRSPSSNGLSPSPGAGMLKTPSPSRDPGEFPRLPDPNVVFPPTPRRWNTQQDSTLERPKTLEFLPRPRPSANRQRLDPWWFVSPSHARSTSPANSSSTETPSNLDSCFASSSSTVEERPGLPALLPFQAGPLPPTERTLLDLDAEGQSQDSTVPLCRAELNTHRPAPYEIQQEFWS
Series [13] concerns the target Dual specificity protein kinase CLK2 (Homo sapiens, UniProt P49760). Description: Inhibition of human recombinant CLK2 expressed in Baculovirus system.
Series [14] in a line: Unbound fraction in mouse plasma at 37 degC by equilibrium dialysis. The series is classed as ADME, cell-free. On the technique in general: In equilibrium dialysis free small molecules cross a membrane that holds back macromolecules.
Series [15] deals with T1, Cyclin-dependent kinase 9 (Homo sapiens, UniProt P50750). Description: Inhibition of CDK9 (unknown origin) at 1 uM relative to control.
T1 sequence (P50750 whole entry): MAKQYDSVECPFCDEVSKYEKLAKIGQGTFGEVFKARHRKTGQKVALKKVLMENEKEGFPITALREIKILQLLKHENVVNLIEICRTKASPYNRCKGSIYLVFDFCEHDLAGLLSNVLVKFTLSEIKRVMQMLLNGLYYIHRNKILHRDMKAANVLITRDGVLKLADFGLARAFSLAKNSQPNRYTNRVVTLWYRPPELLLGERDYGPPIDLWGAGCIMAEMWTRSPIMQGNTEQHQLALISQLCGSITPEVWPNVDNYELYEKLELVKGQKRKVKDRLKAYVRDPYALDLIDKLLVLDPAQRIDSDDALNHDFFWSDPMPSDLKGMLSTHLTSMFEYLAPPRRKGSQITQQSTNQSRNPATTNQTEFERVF
The target in series [16] is Dual specificity protein kinase CLK3 (Homo sapiens, UniProt P49761). Kind of series: Inhibition of human recombinant CLK3 expressed in Baculovirus system.
Chain of Dual specificity protein kinase CLK3 (P49761 whole entry): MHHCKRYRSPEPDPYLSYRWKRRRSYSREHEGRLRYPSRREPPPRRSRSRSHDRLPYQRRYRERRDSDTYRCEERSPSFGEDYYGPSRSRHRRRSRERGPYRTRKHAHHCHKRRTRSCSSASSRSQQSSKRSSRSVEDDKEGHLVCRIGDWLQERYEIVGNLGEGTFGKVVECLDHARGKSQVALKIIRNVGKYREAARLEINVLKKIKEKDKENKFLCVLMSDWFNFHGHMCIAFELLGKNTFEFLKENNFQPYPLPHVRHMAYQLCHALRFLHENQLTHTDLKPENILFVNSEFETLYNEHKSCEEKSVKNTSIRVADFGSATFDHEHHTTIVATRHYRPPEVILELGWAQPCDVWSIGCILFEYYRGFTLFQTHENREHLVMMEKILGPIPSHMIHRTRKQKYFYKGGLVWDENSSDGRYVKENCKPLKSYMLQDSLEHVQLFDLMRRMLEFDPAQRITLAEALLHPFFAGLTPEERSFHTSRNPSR
Series [17] concerns the target CDK8/Cyclin C (Homo sapiens, UniProt P49336). Kind of series: Inhibition of human recombinant CDK8/cyclinC expressed in Baculovirus system.
The nature of series [18]: Oral bioavailability in Han Wistar rat at 2 mg/kg. The series is classed as ADME, organism-based. Particulars: in vivo.
Series [19] has as its target Cyclin-dependent kinase 7 (Homo sapiens, UniProt P50613). Description: Inhibition of CDK7 (unknown origin).
The nature of series [20]: Aqueous solubility in pH 7.4 phosphate buffer. The series is classed as physicochemical.
Series [21] can be described thus: Intrinsic clearance in rat hepatocytes assessed per million cells. The class given is ADME, cell-based, Hepatocyte. The note with it: read-out: CLH.
Series [22] addresses Dual specificity protein kinase CLK1 (Homo sapiens, UniProt P49759). Kind of series: Inhibition of human recombinant CLK1 expressed in Escherichia coli.
The nature of series [23]: Lipophilicity, logD of the compound at pH 7.4 by shake-flask assay. The class given is physicochemical. The note with it: buffer.
Series [24] relates to OCI-Ly10. Kind of series: Antitumor activity against human OCI-LY10 cells xenografted in CB.17 SCID mouse assessed as inhibition of tumor growth at 50 mg/kg, po QD dosed 34 days after tumor cell inoculation. The class given is functional, organism-based. On the technique in general: In xenograft studies the graft and the host belong to different species.
In series [25] the target is Dual specificity protein kinase CLK4 (Homo sapiens, UniProt Q9HAZ1). Description: Inhibition of human recombinant CLK4 expressed in Baculovirus system.
Chain of Dual specificity protein kinase CLK4 (Q9HAZ1 whole entry): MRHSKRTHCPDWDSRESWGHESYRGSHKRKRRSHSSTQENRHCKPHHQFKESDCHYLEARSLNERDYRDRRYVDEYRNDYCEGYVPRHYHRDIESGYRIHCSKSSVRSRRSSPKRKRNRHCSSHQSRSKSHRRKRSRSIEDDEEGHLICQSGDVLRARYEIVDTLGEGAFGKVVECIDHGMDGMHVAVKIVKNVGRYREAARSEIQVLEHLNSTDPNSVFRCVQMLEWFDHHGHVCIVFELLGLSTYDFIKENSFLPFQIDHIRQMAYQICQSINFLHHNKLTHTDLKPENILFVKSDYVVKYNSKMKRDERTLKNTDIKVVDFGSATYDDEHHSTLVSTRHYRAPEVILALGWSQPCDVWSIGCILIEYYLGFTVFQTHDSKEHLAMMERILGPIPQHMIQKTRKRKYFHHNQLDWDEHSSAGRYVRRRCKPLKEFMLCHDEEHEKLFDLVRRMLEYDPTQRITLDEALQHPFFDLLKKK
Series [26] can be described thus: AUC in SCID mouse at 50 mg/kg, po. The series is classed as ADME, organism-based. The note with it: in vivo.
A short description of series [27]: Oral bioavailability in rat at 1 mg/kg. The series is classed as ADME, organism-based. The note with it: in vivo.
Series [28] addresses Interleukin-1 receptor-associated kinase 1 (Homo sapiens, UniProt P51617). Description: Inhibition of IRAK1 (unknown origin).
The subject of series [29] is OCI-Ly10. Kind of series: Antitumor activity against human OCI-LY10 cells xenografted in CB.17 SCID mouse assessed as induction of tumor regression at 50 mg/kg, po QD dosed 34 days after tumor cell inoculation and co-treated with 12 mg/kg, po QD ibrutinib. The series is classed as functional, organism-based.
Series [30] is described as follows: Intrinsic permeability in human Caco2 cells. The class given is ADME, cell-based. The note with it: Caco-2.
Series [31] in a line: Plasma clearance in Han Wistar rat at 1 mg/kg, iv. The class given is ADME, organism-based.
The target of series [32] is T2, Serine/threonine-protein kinase ULK2 (Homo sapiens) (UniProt Q8IYT8).
T2 sequence (whole entry): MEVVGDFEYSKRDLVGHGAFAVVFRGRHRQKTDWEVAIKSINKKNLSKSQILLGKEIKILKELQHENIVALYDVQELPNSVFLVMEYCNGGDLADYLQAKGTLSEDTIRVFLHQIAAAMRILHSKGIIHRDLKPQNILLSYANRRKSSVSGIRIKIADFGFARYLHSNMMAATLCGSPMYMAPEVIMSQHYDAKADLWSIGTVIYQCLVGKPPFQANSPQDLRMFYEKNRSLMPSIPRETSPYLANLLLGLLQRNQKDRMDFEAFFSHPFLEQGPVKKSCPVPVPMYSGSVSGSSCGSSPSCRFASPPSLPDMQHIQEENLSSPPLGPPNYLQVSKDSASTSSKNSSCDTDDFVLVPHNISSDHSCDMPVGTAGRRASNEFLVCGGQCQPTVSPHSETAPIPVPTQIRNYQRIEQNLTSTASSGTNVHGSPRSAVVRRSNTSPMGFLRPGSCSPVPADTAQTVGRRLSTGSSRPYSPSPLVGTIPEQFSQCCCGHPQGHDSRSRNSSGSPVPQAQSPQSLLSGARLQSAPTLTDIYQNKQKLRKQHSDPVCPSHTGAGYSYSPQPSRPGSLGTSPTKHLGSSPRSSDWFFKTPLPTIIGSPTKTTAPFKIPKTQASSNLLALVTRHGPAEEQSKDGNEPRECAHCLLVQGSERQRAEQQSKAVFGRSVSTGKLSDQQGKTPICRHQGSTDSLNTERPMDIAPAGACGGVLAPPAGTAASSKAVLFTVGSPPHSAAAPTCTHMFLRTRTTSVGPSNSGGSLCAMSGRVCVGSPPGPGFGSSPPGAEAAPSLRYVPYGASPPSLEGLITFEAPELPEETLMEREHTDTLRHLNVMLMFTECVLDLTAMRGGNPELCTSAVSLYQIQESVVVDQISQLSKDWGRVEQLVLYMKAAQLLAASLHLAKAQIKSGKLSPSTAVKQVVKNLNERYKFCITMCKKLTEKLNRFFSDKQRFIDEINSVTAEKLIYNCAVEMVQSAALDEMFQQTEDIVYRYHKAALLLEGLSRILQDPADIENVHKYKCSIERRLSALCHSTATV
Kind of series: Inhibition of ULK2 (unknown origin) at 1 uM relative to control.

Series [33] in a line: Clearance in rat at 0.5 mg/kg, iv. The series is classed as ADME, organism-based. Particulars: in vivo.
Series [34] is described as follows: Unbound fraction in rat plasma at 37 degC by equilibrium dialysis. The class given is ADME, cell-free.
Series [35] can be described thus: Volume of distribution at steady state in Han Wistar rat at 1 mg/kg, iv. The class given is ADME, organism-based. The note with it: in vivo, read-out: Vdss.
A short description of series [36]: Intrinsic clearance in human hepatocytes assessed per million cells. The class given is ADME, cell-based, Hepatocyte. Particulars: read-out: CLH.
For series [37], the target named is Casein kinase I isoform gamma-1 (Homo sapiens) (UniProt Q9HCP0). Description: Inhibition of CK1g1 (unknown origin) at 1 uM relative to control.
Chain of Casein kinase I isoform gamma-1 (Homo sapiens) (Q9HCP0 whole entry, looked up, canonical isoform): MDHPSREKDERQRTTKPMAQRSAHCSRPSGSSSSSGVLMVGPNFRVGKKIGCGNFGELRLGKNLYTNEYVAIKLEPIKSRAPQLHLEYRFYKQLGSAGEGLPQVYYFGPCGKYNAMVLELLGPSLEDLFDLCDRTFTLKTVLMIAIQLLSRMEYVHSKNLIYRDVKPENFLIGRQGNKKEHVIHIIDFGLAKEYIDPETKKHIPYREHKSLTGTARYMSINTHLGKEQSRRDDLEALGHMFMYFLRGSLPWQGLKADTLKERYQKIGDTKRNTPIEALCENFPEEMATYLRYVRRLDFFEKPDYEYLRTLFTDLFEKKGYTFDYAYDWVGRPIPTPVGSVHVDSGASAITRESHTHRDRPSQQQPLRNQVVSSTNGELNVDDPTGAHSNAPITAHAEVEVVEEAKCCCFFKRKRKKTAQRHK
Series [38] is described as follows: Unbound fraction in human plasma at 37 degC by equilibrium dialysis. The series is classed as ADME, cell-free.
The target in series [39] is T1, Cyclin-dependent kinase 9. Kind of series: Inhibition of CDK9 (unknown origin).

Chain of Dual specificity protein kinase CLK1 (P49759 whole entry): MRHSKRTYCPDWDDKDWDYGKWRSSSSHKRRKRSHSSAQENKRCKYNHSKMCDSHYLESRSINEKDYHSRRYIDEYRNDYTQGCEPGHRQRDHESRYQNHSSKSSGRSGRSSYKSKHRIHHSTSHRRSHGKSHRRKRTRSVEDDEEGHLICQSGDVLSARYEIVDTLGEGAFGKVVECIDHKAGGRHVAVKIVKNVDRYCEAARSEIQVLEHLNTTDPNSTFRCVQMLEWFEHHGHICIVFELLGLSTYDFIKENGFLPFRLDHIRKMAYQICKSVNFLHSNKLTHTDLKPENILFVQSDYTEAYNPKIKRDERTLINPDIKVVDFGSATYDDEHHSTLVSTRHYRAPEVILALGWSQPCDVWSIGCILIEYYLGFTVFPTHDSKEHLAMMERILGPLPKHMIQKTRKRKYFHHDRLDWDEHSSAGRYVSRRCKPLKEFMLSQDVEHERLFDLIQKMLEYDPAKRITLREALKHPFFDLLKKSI
Chain of Dual specificity protein kinase CLK2 (P49760 whole entry): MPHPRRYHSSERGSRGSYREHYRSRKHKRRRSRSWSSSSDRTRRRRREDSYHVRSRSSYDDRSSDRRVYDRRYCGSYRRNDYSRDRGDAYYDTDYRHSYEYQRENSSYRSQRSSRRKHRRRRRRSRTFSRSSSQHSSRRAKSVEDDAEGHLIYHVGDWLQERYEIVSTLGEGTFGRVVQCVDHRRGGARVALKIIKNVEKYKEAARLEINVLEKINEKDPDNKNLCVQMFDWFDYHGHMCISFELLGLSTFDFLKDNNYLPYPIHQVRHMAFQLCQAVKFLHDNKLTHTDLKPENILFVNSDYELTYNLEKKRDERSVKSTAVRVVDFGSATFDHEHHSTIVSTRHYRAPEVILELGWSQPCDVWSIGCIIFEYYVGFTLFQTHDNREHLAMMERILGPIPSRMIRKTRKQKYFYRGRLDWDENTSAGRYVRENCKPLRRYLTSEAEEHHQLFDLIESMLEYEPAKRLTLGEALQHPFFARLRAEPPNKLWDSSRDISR
Chain of Cyclin-dependent kinase 7 (P50613 whole entry): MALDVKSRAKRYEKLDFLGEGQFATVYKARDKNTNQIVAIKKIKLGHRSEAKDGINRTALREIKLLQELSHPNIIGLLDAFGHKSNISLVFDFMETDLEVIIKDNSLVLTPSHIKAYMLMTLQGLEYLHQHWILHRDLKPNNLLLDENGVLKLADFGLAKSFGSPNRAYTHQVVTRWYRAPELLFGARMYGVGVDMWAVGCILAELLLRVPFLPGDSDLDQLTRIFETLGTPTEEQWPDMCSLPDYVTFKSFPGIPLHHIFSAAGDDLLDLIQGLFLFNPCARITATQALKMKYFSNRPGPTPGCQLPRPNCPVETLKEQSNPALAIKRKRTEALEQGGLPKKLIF
Chain of Interleukin-1 receptor-associated kinase 1 (P51617 whole entry): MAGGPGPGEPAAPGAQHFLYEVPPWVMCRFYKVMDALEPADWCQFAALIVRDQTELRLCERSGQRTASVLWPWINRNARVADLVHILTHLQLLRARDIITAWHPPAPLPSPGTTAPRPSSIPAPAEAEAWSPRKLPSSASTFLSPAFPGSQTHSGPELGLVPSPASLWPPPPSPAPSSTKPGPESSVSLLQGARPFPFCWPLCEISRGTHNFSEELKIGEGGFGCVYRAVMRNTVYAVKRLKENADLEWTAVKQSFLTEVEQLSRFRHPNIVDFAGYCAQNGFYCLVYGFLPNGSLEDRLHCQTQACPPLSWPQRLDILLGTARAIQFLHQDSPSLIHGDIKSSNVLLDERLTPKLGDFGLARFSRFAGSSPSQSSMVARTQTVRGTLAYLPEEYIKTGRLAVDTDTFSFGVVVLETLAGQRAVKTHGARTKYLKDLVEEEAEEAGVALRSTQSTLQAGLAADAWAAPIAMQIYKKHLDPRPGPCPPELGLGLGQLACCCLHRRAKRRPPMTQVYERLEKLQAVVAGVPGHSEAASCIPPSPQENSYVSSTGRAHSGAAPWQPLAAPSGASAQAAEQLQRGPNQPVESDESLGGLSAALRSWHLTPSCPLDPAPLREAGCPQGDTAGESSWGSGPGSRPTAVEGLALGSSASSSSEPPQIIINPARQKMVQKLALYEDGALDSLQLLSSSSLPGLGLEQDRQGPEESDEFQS

For the molecule `C=CC(=O)N1CCC[C@@H](n2nc(-c3ccc(Oc4ccccc4)cc3)c3c(N)ncnc32)C1` [IBRUTINIB], the inhibition of growth at 0.01 µM is 7% in series [1] and 83% in [9]. In addition, the result in [2] was Active. Besides, the inhibition of growth at 0.042 µM in [3] stood at 93%; in [7], 11%. For the same molecule, the values for the inhibition of growth at 0.0003 µM in series [4] and in series [11] were 5% and 3%, respectively. In addition, the inhibition of growth at 0.0042 µM in [5] came out at 60%; in [6], 6%. Besides, the inhibition of growth at 0.0021 µM worked out at 36% in [8] and 7% in series [10].
On to `COC(=O)N1CCN([C@H]2CC[C@H](Nc3ncnc4ccc(C#N)cc34)CC2)CC1`, for which the inhibition in series [12] is 51%; in series [15] it was 84%; in series [32] it was 58%; in [37] it was 53%. The half-maximal inhibitory concentration (IC50) in [13] was 360 nM; in series [16], over 10000 nM; in series [17], 68 nM; in [19], 3100 nM; in series [22], 1700 nM; in series [25], 610 nM. Moreover, the values for the IC50 in series [28] and in [39] were 44 nM and 370 nM, respectively. In addition, the fraction unbound turned out to be 0.28 in [14], 0.05 in series [34] and 0.23 in series [38]. Moreover, the bioavailability in [18] and in [27] was over 100% throughout. The solubility in [20] was determined as 130 µM (≈ 51.3 µg/mL). The hepatocyte CLint was under 1.6 µL/min/1e6 cells in series [21] and under 1 µL/min/1e6 cells in series [36]. For the same molecule, the logD in series [23] came to 2.2. The TGI result in [24] was “Active”. In addition, in series [26], the area under the curve (AUC) was 390 µM·h. In series [29], the outcome was Active. The same molecule had a Papp in series [30] of 20 ×10⁻⁶ cm/s. In addition, the clearance in [31] and in [33] was 7.4 mL/min/kg throughout. The Vd in series [35] was determined as 1.3 L/kg.
